We go through 2 compounds from patent publication US11773094B2, “Farnesoid X receptor agonists and uses thereof” (Metacrine, Inc., priority 2018, dated 2023).

For the assay, the target named is T1, hFXR (Homo sapiens, UniProt Q96RI1).
T1 construct: expressed in transfected cells; host or cells: CV-1 cells
T1 sequence (Q96RI1 1-486): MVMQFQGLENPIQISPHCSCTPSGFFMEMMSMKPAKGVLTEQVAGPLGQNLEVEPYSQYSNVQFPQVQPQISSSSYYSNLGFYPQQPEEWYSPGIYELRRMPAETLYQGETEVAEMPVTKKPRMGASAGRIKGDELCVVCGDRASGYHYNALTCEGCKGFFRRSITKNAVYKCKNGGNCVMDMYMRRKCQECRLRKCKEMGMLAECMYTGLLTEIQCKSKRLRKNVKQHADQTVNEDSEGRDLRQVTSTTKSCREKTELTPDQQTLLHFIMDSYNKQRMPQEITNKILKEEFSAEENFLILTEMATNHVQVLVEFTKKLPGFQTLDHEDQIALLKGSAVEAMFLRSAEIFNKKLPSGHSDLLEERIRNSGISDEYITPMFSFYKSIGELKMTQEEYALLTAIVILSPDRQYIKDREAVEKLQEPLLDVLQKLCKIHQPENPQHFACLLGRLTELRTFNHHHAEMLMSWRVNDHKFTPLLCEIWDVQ
T1 sequence (P19793 1-462 partner): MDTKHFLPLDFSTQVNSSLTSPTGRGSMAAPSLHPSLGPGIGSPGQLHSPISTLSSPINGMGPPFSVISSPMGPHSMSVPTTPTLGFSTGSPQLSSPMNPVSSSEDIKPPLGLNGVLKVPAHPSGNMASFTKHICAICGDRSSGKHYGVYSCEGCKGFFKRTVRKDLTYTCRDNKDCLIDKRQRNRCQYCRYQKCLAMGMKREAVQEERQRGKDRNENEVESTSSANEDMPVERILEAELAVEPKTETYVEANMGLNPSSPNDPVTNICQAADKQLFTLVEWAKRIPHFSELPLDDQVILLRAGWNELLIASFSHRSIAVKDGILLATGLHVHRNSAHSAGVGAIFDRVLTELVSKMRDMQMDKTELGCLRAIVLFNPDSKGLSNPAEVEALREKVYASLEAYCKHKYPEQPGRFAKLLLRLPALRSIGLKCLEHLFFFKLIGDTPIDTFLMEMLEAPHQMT
In words: In Vitro FXR Assay (TK): TK-ECRE-luc reporter in transfected CV-1 cells. It counts as cell-based. Conditions: CV-1 cells transfected with hFXR, hRXR, pCMX-YFP, 18 hrs incubation, luminescence. In outline:
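Transactivation is scored as luminescence in CV-1 cell lysates. The cells, co-transfected with hFXR/hRXR and a TK-ECRE-luc reporter, are exposed to DMSO-diluted compounds for 18 h.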

Turning to `COc1ccc(C23CCC(CN(c4cc(-c5cnc(C(C)(C)C)s5)ccn4)C(=O)[C@H]4CC[C@H](OC(=O)N5CC(S(C)(=O)=O)C5)CC4)(CC2)CC3)cc1C` [Compound 2.03, 4-((4-(2-(tert-Butyl)thiazol-5-yl)pyridin-2-yl)((4-(4-methoxy-3-methylphenyl)bicyclo[2.2.2]octan-1-yl)methyl)carbamoyl) (trans-cyclohexyl) 3-(methylsulfonyl)azetidine-1-carboxylate], the EC50 (commonly the concentration that produces a half-maximal response) was no more than 10 nM.

Regarding `COc1ccc(C23CCC(CN(c4cc(-n5ccc(C(C)(C)C)n5)ccn4)C(=O)[C@H]4CC[C@H](OC(=O)N5CC(O)C5)CC4)(CC2)CC3)cc1C` [Compound 2.35, 4-((4-(3-(tert-Butyl)-1H-pyrazol-1-yl)pyridin-2-yl)((4-(4-methoxy-3-methylphenyl)bicyclo[2.2.2]octan-1-yl)methyl)carbamoyl) cyclohexyl trans-3-hydroxyazetidine-1-carboxylate], the concentration giving a half-maximal response (EC50) fell in the range of 10 to 1000 nM.
